Literature values, collected in patent publication US9657007B2, “Substituted aminopyrimidine compounds and methods of use” (Calitor Sciences, LLC, priority 2013, dated 2017).

Experiments:
PI3Kδ = conditions: potency range in words
[1] = tested on: murine model of asthma using ovalbumin-induced airway inflammation
[2] = tested on: mouse model of rheumatoid arthritis; conditions: in vivo
[3] = tested on: model of systemic lupus erythematosis; conditions: in vivo

| SMILES | activity against any protein kinases tested (protein kinases) | inhibits PI3Kδ (PI3Kδ) | inflammation and disease in a murine model of asthma [1] | efficacy in a mouse model of rheumatoid arthritis [2] | onset of disease in a model of systemic lupus erythematosis [3] |
| --- | --- | --- | --- | --- | --- |
| Cc1ccccc1-n1c(Cn2cnc3c(N)ncnc32)nc2cccc(C)c2c1=O [IC87114] | no activity | high nanomolar range (triple digit) | significantly ameliorate inflammation and disease |  |  |
| O=C1NC(=O)/C(=C\c2ccc3nccnc3c2)S1 [AS 605240] |  |  |  | efficacious | delay onset of disease |
